Source: US7811352B2, “Fertilizer compositions and methods of using” (priority 2005, dated 2010)
Marks after values point to notes of the source that are not given here.

Key:
[1] = tested on: rhizomatous tall fescue grass; experiment: Phytotoxicity (% burn), rhizomatous tall fescue (Example 14); type: in vivo
Procedure: In this Example, the effect of a fertilizer comprising lysine on turfgrass growth was examined. The effects of lysine (HCl) and LIQUID LYSINE on a common type of lawn quality turfgrass (rhizomatous tall fescue) were compared with those of CoRoN® brand fertilizer.
Six fertilizer treatments comprising two concentrations of each fertilizer composition (Coron® (N—P—K, 14-2-34), LIQUID LYSINE (N—P—K, 10-2-1), and lysine (HCl) (N—P—K, 15-2-1)) were prepared and applied to 3 replications of rhizomatous tall fescue grass. The solutions of lysine (HCl) (dissolved in 0.5 gal water), LIQUID LYSINE and Coran were applied using a Birchmeier backpack sprayer with a 5 foot spray pattern, Each fertilizer treatment was applied in either a 3-split application with an application rate of 2 lb N/1000 ft^2 or a 6-split application with an application rate of 1 lb N/1000 ft^2. Plot size was 9 ft×9 ft set up as a randomized complete block. Irrigation was applied following application. Plots were rated for turfgrass quality and color (scale of 1-10 where 10=dark green turf, 1 =dead/brown turf, and 6=minimally acceptable turf and phytotoxicity (% burn) throughout the study period and compared with two untreated plots. Quality, color, and phytotoxicity were measured on day 7, day 14, day 21, day 28, day 35, and day 42 after application. All data was subject to statistical analysis and significant means were determined. Average turfgrass quality ratings for the treatments are presented in Table 21. Average turfgrass color ratings are presented in Table 22. Average phytotoxicity ratings (as % burn) are presented in Table 23.

[2] = Solubility of L-lysine (HCl) in water; type: physicochemical; details: at 25° C., read-out: solubility in H2O
[3] = tested on: green height, creeping bentgrass; experiment: Color rating of green height creeping bentgrass after fertilization (Example 4); type: in vivo; details: about two weeks after application
Procedure: In this Example, the efficacy of fertilizers on green height, creeping bentgrass was examined. Fertilizer compositions according to several embodiments of the present disclosure were prepared and compared to the commercial fertilizer products, urea 46-0-0 (granular) fertilizer, Lebanon fertilizer 21-0-12 (granular, commercially available from Lebanon Seaboard Corporation, Lebanon, Pa.) and Milorganite 6-2-0 (granular, commercially available from Milorganite, Milwaukee, Wis.). The fertilizer compositions were applied to the turf grass prior to winter dormancy of the turf at a rate equivalent to supplying about 1.0 pounds of nitrogen (N) per 1000 square feet. Each of the fertilizer compositions were applied at substantially equal rates of pounds (lbs) of nitrogen (N) per 1000 square feet. Table 1 illustrates the response of green height (i.e., the height of grass on golf course green), creeping bentgrass to fertilization using various exemplary fertilizers of the present invention, taken about two weeks after application of the fertilizer. The letters in the Color and Injury columns correspond to Duncan's Multiple Range Test. Numbers (means) in a column followed by the same letter are not statistically different at P=0.05.

[4] = tested on: Bermuda grass; experiment: Turfgrass quality and color ratings, Bermuda grass fairway (Example 10); type: in vivo; set-up: key: 1-10; 10 = dark green turf, 1 = dead/brown, 6 = minimally acceptable; details: scale 1-10
Excerpt: In this Example, the effect of a fertilizer comprising lysine on warm season turfgrass growth was examined. The effects of lysine (HCl) and LIQUID LYSINE on a common type of golf course fairway quality turfgrass (Bermuda grass) were compared with those of urea and Milorganite.
Fifteen fertilizer treatments comprising three concentrations of each fertilizer composition (Milorganite (N—P—K, 6-2-0), urea (N—P—K, 46-0-0), LIQUID LYSINE (N—P—K, 10-2-1), and both granular and aqueous lysine (HCl) (N—P—K, 15-2-1)) were prepared and applied to 4 replications of Bermuda grass. The aqueous lysine (HCl) was dissolved in water prior to application. Each fertilizer treatment was applied in concentrations of 0.5 lb N/1000 ft^2/month, 1.0 lb N/1000 ft^2/month and 3.0 lb N/1000 ft^2/month. The urea, LIQUID LYSINE and aqueous lysine (HCl) were applied as foliar liquids, while Milorganite and granular lysine (HCl) were applied as granular fertilizers Plot size was 1 m×2 m set up as a randomized complete block. Plots were mowed at 0.5 inches before fertilizer application. Irrigation (0.15 inch) was applied following application. Plots were rated for turfgrass quality and color (scale of 1-10 where 10=dark green turf, 1=dead/brown turf, and 6=minimally acceptable turf) and phytotoxicity (scale of 0-5, where 5=worst, and 2=minimally objectionable) throughout the study period. Quality, color, and phytotoxicity were measured on 2 days before application (day −2) and day 2, day 5, day 15 and day 21 after application. All data was subject to statistical analysis and significant means were determined. Average turfgrass quality ratings for the treatments are presented in Table 9 and the quality results for application rates of 1.0 lb N/1000 ft^2/month are graphically presented in FIG. 4.

[5] = Monthly Rate 0.5 lbs N/1000 ft^2, Day 2
[6] = Monthly Rate 0.5 lbs N/1000 ft^2, Day 5
[7] = Monthly Rate 0.5 lbs N/1000 ft^2, Day 15
[8] = Monthly Rate 0.5 lbs N/1000 ft^2, Day 21
[9] = Monthly Rate 0.5 lbs N/1000 ft^2, Day −2 (before application)
[10] = Monthly Rate 1.0 lbs N/1000 ft^2, Day 2
[11] = Monthly Rate 1.0 lbs N/1000 ft^2, Day 5
[12] = Monthly Rate 1.0 lbs N/1000 ft^2, Day 15
[13] = Monthly Rate 1.0 lbs N/1000 ft^2, Day 21
[14] = Monthly Rate 1.0 lbs N/1000 ft^2, Day −2 (before application)
[15] = Monthly Rate 3.0 lbs N/1000 ft^2, Day 2
[16] = Monthly Rate 3.0 lbs N/1000 ft^2, Day 5
[17] = Monthly Rate 3.0 lbs N/1000 ft^2, Day 15
[18] = Monthly Rate 3.0 lbs N/1000 ft^2, Day 21
[19] = Monthly Rate 3.0 lbs N/1000 ft^2, Day −2 (before application)

In the case of Cl.NCCCC[C@H](N)C(=O)O [Lys (HCl) 15% N, L-lysine monohydrochloride], the “Phytotoxicity (% Burn) - Tall fescue grass” value (“Phytotoxicity (% Burn)” below) ([1]; 3-split, 2.0 lb N/1000 ft^2, Day 7) is reported as 15.0b %, the “Phytotoxicity (% Burn)” value ([1]; 3-split, 2.0 lb N/1000 ft^2, Day 14) is reported as 6.7b % and the “Phytotoxicity (% Burn)” value ([1]; 3-split, 2.0 lb N/1000 ft^2, Day 21) is reported as 1.7b %. The “Phytotoxicity (% Burn)” value ([1]; 3-split, 2.0 lb N/1000 ft^2, Day 28) was 0.0a %, the “Phytotoxicity (% Burn)” value ([1]; 3-split, 2.0 lb N/1000 ft^2, Day 35) was 0.0a % and the “Phytotoxicity (% Burn)” value ([1]; 6-split, 1.0 lb N/1000 ft^2, Day 7) was 10.0c %. The “Phytotoxicity (% Burn)” value ([1]; 6-split, 1.0 lb N/1000 ft^2, Day 14) was 1.7bc %, the “Phytotoxicity (% Burn)” value ([1]; 6-split, 1.0 lb N/1000 ft^2, Day 21) was 0.0b % and the “Phytotoxicity (% Burn)” value ([1]; 6-split, 1.0 lb N/1000 ft^2, Day 28) was 0.0a %. For the same compound, the “Phytotoxicity (% Burn)” value ([1]; 6-split, 1.0 lb N/1000 ft^2, Day 35) was 0.0a % and the solubility [2] was 500 to 600 mg/mL.

With NC(N)=O [Urea, urea, reference compound] the “Color 1-9 (9 = dark green)” value ([3]; 1.09 Lbs. product/1000 square feet) was 6.7^a,b,c, the “Color 1-9 (9 = dark green)” value ([3]; 2.17 Lbs. product/1000 square feet) was 6.7^a,b,c and the “Color 1-9 (9 = dark green)” value ([3]; 6.51 Lbs. product/1000 square feet) was 6.0^d,c. The “Color Ratings - Bermuda Grass” value [4, 5] was 7.4, the “Quality Ratings - Bermuda Grass” value [4, 5] was 7.5ab and the “Color Ratings - Bermuda Grass” value [4, 6] was 7.6efg. For the same compound, the “Quality Ratings - Bermuda Grass” value [4, 6] was 7.5cd, the “Color Ratings - Bermuda Grass” value [4, 7] was 7.4de and the “Quality Ratings - Bermuda Grass” value [4, 7] was 7.5de. The “Color Ratings - Bermuda Grass” value [4, 8] was 7.6cd, the “Quality Ratings - Bermuda Grass” value [4, 8] was 7.5f and the “Color Ratings - Bermuda Grass” value [4, 9] was 6.5. For the same compound, the “Quality Ratings - Bermuda Grass” value [4, 9] was 6.3, the “Color Ratings - Bermuda Grass” value [4, 10] was 7.6 and the “Quality Ratings - Bermuda Grass” value [4, 10] was 7.5ab. The “Color Ratings - Bermuda Grass” value [4, 11] was 8.0def, the “Quality Ratings - Bermuda Grass” value [4, 11] was 7.9abc and the “Color Ratings - Bermuda Grass” value [4, 12] was 7.3de. For the same compound, the “Quality Ratings - Bermuda Grass” value [4, 12] was 7.6de, the “Color Ratings - Bermuda Grass” value [4, 13] was 7.6cd and the “Quality Ratings - Bermuda Grass” value [4, 13] was 7.6ef. For the same compound, the “Color Ratings - Bermuda Grass” value [4, 14] was 6.5, the “Quality Ratings - Bermuda Grass” value [4, 14] was 6.3 and the “Color Ratings - Bermuda Grass” value [4, 15] was 8.0. For the same compound, the “Quality Ratings - Bermuda Grass” value [4, 15] was 8.1a, the “Color Ratings - Bermuda Grass” value [4, 16] was 8.8ab and the “Quality Ratings - Bermuda Grass” value [4, 16] was 8.3ab. The “Color Ratings - Bermuda Grass” value [4, 17] was 7.5cde, the “Quality Ratings - Bermuda Grass” value [4, 17] was 7.9de and the “Color Ratings - Bermuda Grass” value [4, 18] was 7.9bcd. The “Quality Ratings - Bermuda Grass” value [4, 18] was 7.8def, the “Color Ratings - Bermuda Grass” value [4, 19] was 6.4 and the “Quality Ratings - Bermuda Grass” value [4, 19] was 6.1.
